The source of these data is patent publication US6689778B2, “Inhibitors of Src and Lck protein kinases” (Vertex Pharmaceuticals Incorporated, priority 2001, dated 2004).

One assay addresses T1, human Src kinase (Homo sapiens, UniProt P12931).
T1 construct: full length recombinant human Src kinase (from Upstate Biotechnology, cat. no. 14-117); purchased Upstate Biotechnology 14-117; host or cells: baculovirus-infected (insect) cells
Briefly: Src inhibition assay (radioactivity-based assay A or spectrophotometric assay B). It is filed as biochemical. The settings on record: recombinant human Src, poly Glu-Tyr substrate; assay A or B not specified. How it is done:
The compounds were evaluated as inhibitors of human Src kinase using either a radioactivity-based assay or spectrophotometric assay.
(§1) The compounds were assayed as inhibitors of full length recombinant human Src kinase (from Upstate Biotechnology, cat. no. 14-117) expressed and purified from baculo viral cells. Src kinase activity was monitored by following the incorporation of ^33P from ATP into the tyrosine of a random poly Glu-Tyr polymer substrate of composition, Glu:Tyr=4:1 (Sigma, cat. no. P-0275). The following were the final concentrations of the assay components: 0.05 M HEPES, pH 7.6, 10 mM MgCl2, 2 mM DTT, 0.25 mg/ml BSA, 10 μM ATP (1-2 μCi ^33P-ATP per reaction), 5 mg/ml poly Glu-Tyr, and 1-2 units of recombinant human Src kinase. In a typical assay, all the reaction components with the exception of ATP were pre-mixed and aliquoted into assay plate wells. Inhibitors dissolved in DMSO were added to the wells to give a final DMSO concentration of 2.5%. The assay plate was incubated at 30° C. for 10 minutes before initiating the reaction with ^33P-ATP. After 20 minutes of reaction, the reactions were quenched with 150 μl of 10% trichloroacetic acid (TCA) containing 20 mM Na3PO4. The quenched samples were then transferred to a 96-well filter plate (Whatman, UNI-Filter GF/F Glass Fiber Filter, cat no. 7700-3310) installed on a filter plate vacuum manifold. Filter plates were washed four times with 10% TCA containing 20 mM Na3PO4 and then 4 times with methanol. 200 μl of scintillation fluid was then added to each well. The plates were sealed and the amount of radioactivity associated with the filters was quantified on a TopCount scintillation counter. The radioactivity incorporated was plotted as a function of the inhibitor concentration. The data was fitted to a competitive inhibition kinetics model to get the Ki for the compound.
The ADP produced from ATP by the human recombinant Src kinase-catalyzed phosphorylation of poly Glu-Tyr substrate was quanitified using a coupled enzyme assay (Fox et al (1998) Protein Sci 7, 2249). In this assay one molecule of NADH is oxidised to NAD for every molecule of ADP produced in the kinase reaction. The disappearance of NADH can be conveniently followed at 340 nm.
The following were the final concentrations of the assay components: 0.025 M HEPES, pH 7.6, 10 mM MgCl2, 2 mM DTT, 0.25 mg/ml poly Glu-Tyr, and 25 nM of recombinant human Src kinase. Final concentrations of the components of the coupled enzyme system were 2.5 mM phosphoenolpyruvate, 200 μM NADH, 30 μg/ml pyruvate kinase and 10 μg/ml lactate dehydrogenase.
In a typical assay, all the reaction components with the exception of ATP were pre-mixed and aliquoted into assay plate wells. Inhibitors dissolved in DMSO were added to the wells to give a final DMSO concentration of 2.5%. The assay plate was incubated at 30° C. for 10 minutes before initiating the reaction with 100 μM ATP. The absorbance change at 340 nm with time, the rate of the reaction, was monitored on a molecular devices plate reader. The data of rate as a function of the inhibitor concentration was fitted to compettive inhibition kinetics model to get the Ki for the compound.

The next assay concerns the target human Lck kinase (UniProt P06239). Briefly: Lck inhibition assay (radioactivity-based assay A or spectrophotometric assay B). The settings on record: poly Glu-Tyr substrate; assay A or B not specified; read-out: Lck Activity (Ki class). In kind it is biochemical. How it is done: The compounds were evaluated as inhibitors of human Lck kinase using either a radioactivity-based assay or spectrophotometric assay.
as §1, with “length bovine thymus Lck” for “length recombinant human Src”, “no. 14-106)” for “no. 14-117)”, “cells. Lck” for “cells. Src”, “components: 0.025” for “components: 0.05”, “20 min” for “20 minutes”
The ADP produced from ATP by the human recombinant Lck kinase-catalyzed phosphorylation of poly Glu-Tyr substrate was quanitified using a coupled enzyme assay (Fox et al (1998) Protein Sci 7, 2249). In this assay one molecule of NADH is oxidised to NAD for every molecule of ADP produced in the kinase reaction. The disappearance of NADH can be conveniently followed at 340 nm.
The following were the final concentrations of the assay components: 0.025 M HEPES, pH 7.6, 10 mM MgCl2, 2 mM DTT, 5 mg/ml poly Glu-Tyr, and 50 nM of recombinant human Lck kinase. Final concentrations of the components of the coupled enzyme system were 2.5 mM phosphoenolpyruvate, 200 μM NADH, 30 μg/ml pyruvate kinase and 10 μg/ml lactate dehydrogenase.
In a typical assay, all the reaction components with the exception of ATP were pre-mixed and aliquoted into assay plate wells. Inhibitors dissolved in DMSO were added to the wells to give a final DMSO concentration of 2.5%. The assay plate was incubated at 30° C. for 10 minutes before initiating the reaction with 150 μM ATP. The absorbance change at 340 nm with time, the rate of the reaction, was monitored on a molecular devices plate reader. The data of rate as a function of the inhibitor concentration was fitted to competitive inhibition kinetics model to get the Ki for the compound.

T1 sequence (P12931 whole entry): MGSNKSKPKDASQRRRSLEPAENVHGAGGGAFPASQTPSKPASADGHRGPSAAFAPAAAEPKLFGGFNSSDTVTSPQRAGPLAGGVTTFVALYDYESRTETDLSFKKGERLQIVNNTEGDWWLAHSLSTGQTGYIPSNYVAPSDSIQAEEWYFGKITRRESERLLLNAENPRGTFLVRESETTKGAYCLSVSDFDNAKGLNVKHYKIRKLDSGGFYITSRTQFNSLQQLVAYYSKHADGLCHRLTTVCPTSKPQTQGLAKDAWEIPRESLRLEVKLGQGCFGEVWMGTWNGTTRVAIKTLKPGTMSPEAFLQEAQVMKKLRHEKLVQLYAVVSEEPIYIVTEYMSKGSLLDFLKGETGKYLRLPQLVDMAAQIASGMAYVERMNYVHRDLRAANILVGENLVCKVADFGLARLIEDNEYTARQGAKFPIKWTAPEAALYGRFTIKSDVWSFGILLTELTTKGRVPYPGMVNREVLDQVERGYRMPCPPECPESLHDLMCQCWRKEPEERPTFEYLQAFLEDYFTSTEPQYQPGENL

With `Cc1onc(C2CCCCC2)c1-c1ccnc(Nc2cccc(OCCOC3CCCCO3)c2)n1` (centres unmarked) [IIIa-1], the inhibition constant Ki on human Src kinase and at human Lck kinase was less than 100 nM in each case.

For the molecule `Cc1onc(C2CCCCC2)c1-c1ccnc(Nc2cccc(OCC3CCCNC3)c2)n1` (centres unmarked) [IIIa-31], on human Lck kinase, the Ki is less than 100 nM.

With `CCCOCc1cnc(Nc2cc(OC)cc(OC)c2)nc1-c1c(C2CCCCC2)noc1C` [IIIb-29], on human Lck kinase, the inhibition constant Ki is less than 100 nM.

Consider `Cc1onc(C2CCCCC2)c1-c1ccnc(Nc2cccc(NC(=O)CCN3CCCCC3)c2)n1` [Va-1], for which the inhibition constant Ki on human Src kinase and on human Lck kinase was less than 100 nM each time.

As for `Cc1onc(C2CCCCC2)c1-c1ccnc(Nc2cccc(OCCCCN3CCN(CCO)CC3)c2)n1` [IIIa-22], the Ki on human Lck kinase is less than 100 nM.

`COc1cc(Nc2ncc(CO)c(-c3c(C4CCCCC4)noc3C)n2)cc(OC)c1` [IIIb-25]: on human Lck kinase, the inhibition constant (Ki) was more than 1000 nM.

In the case of `Cc1onc(C2CCCCC2)c1-c1ccnc(Nc2cccc(OCCCN3CCN(CCO)CC3)c2)n1` [IIIa-12], the Ki on human Lck kinase was less than 100 nM.

As to `Cc1onc(C2CCCCC2)c1-c1ccnc(Nc2cccc(OCCCN3CCOCC3)c2)n1` [IIIa-15], at human Lck kinase, the Ki is less than 100 nM.

Consider `Cc1onc(C2CCCCC2)c1-c1ccnc(Nc2cccc(OCCN3CCC(O)CC3)c2)n1` [IIIa-5], for which the Ki on human Src kinase and at human Lck kinase was less than 100 nM each time.

For the molecule `Cc1onc(C2CCCCC2)c1-c1ccnc(Nc2cccc(OCCCN3CCCCC3)c2)n1` [IIIa-17], the Ki at human Lck kinase was less than 100 nM.

For the molecule `Cc1onc(C2CCCCC2)c1-c1ccnc(Nc2cccc(OCCCN3CCNCC3)c2)n1` [IIIa-18], the Ki on human Lck kinase is less than 100 nM.

Turning to `Cc1onc(C2CCCCC2)c1-c1ccnc(Nc2cccc(OCCN3CCOCC3)c2)n1` [IIIa-2], the Ki at human Src kinase and at human Lck kinase was less than 100 nM throughout.

`Cc1onc(C2CCCCC2)c1-c1ccnc(Nc2cccc(OCCN3CCC(CO)CC3)c2)n1` [IIIa-6]: the inhibitory constant (Ki) on human Src kinase and at human Lck kinase was less than 100 nM throughout.

As to `Cc1onc(C2CCCCC2)c1-c1ccnc(Nc2cccc(OCCN3CCC[C@H]3CO)c2)n1` [IIIa-7], the Ki at human Src kinase and at human Lck kinase was less than 100 nM each time.

Take `Cc1onc(C2CCCCC2)c1-c1ccnc(Nc2cccc(OC3CCCNC3)c2)n1` (centres unmarked) [IIIa-29]: the inhibition constant (Ki) on human Lck kinase is less than 100 nM.

Take `COc1cc(Nc2ncc(C(N)=O)c(-c3c(C4CCCCC4)noc3C)n2)cc(OC)c1` [IIIb-26]: the inhibitory constant (Ki) on human Lck kinase was more than 1000 nM.

On to `Cc1onc(C2CCCCC2)c1-c1ccnc(Nc2cccc(OCCN3CCN(CCO)CC3)c2)n1` [IIIa-8], for which the inhibitory constant (Ki) on human Src kinase and on human Lck kinase was less than 100 nM throughout.

Consider `Cc1onc(C2CCCCC2)c1-c1ccnc(Nc2cccc(OCCCCN3CCCCC3)c2)n1` [IIIa-26], for which the Ki on human Lck kinase was less than 100 nM.

Take `Cc1onc(C2CCCCC2)c1-c1ccnc(Nc2cccc(OCC3CCCN(C(=O)OC(C)(C)C)C3)c2)n1` (centres unmarked) [IIIa-30]: the Ki on human Lck kinase was more than 1000 nM.

As to `COc1cc(Nc2ncc(C(=O)O)c(-c3c(C4CCCCC4)noc3C)n2)cc(OC)c1` [IIIb-24], the inhibition constant Ki at human Lck kinase is more than 1000 nM.

In the case of `Cc1onc(C2CCCCC2)c1-c1ccnc(Nc2cccc(OCCN3CCCCC3)c2)n1` [IIIa-4], the Ki at human Src kinase and on human Lck kinase was less than 100 nM each time.

As for `Cc1onc(C2CCCCC2)c1-c1ccnc(Nc2cccc(OCCCN3CCC(CO)CC3)c2)n1` [IIIa-10], the inhibitory constant (Ki) at human Lck kinase was less than 100 nM.

Turning to `Cc1onc(C2CCCCC2)c1-c1ccnc(Nc2cccc(OCCCCN3CCOCC3)c2)n1` [IIIa-24], at human Lck kinase, the inhibition constant (Ki) was less than 100 nM.

`Cc1onc(C2CCCCC2)c1-c1ccnc(Nc2cccc(OCCCN3CCCC(O)C3)c2)n1` (centres unmarked) [IIIa-13]: the inhibitory constant (Ki) at human Lck kinase was less than 100 nM.

For the molecule `Cc1onc(C2CCCCC2)c1-c1ccnc(Nc2cccc(OCCN3CCCC3)c2)n1` [IIIa-3], the inhibitory constant (Ki) on human Src kinase and on human Lck kinase was less than 100 nM each time.

Regarding `Cc1onc(C2CCCCC2)c1-c1ccnc(Nc2cccc(OCCCCN3CCCC3)c2)n1` [IIIa-25], the Ki on human Lck kinase was less than 100 nM.

Consider `Cc1onc(C2CCCCC2)c1-c1ccnc(Nc2cccc(OCCCN3CCC(O)CC3)c2)n1` [IIIa-9], for which the Ki at human Lck kinase is less than 100 nM.

`Cc1onc(C2CCCCC2)c1-c1ccnc(Nc2cccc(OC3CCCN(C(=O)OC(C)(C)C)C3)c2)n1` (centres unmarked) [IIIa-28]: on human Lck kinase, the inhibitory constant (Ki) is more than 1000 nM.

Consider `Cc1onc(C2CCCCC2)c1-c1ccnc(Nc2cccc(OCCCCN3CCC(O)CC3)c2)n1` [IIIa-19], for which the inhibitory constant (Ki) at human Lck kinase is less than 100 nM.

For the molecule `CCc1onc(C2CCCCC2)c1-c1nc(Nc2cccc(O)c2)ncc1C` [IIIb-28], the Ki at human Src kinase and on human Lck kinase was less than 100 nM throughout.

Take `COc1cc(Nc2ncc(C#N)c(-c3c(C4CCCCC4)noc3C)n2)cc(OC)c1` [IIIb-27]: the Ki at human Lck kinase was 100 to 1000 nM.

Consider `Cc1onc(C2CCCCC2)c1-c1ccnc(Nc2cccc(OCCCN3CCCC3)c2)n1` [IIIa-16], for which the Ki at human Lck kinase is less than 100 nM.

`Cc1onc(C2CCCCC2)c1-c1ccnc(Nc2cccc(OCCCN3CCC[C@H]3CO)c2)n1` [IIIa-11]: the Ki on human Lck kinase was less than 100 nM.

`CCN1CCN(CCCCOc2cccc(Nc3nccc(-c4c(C5CCCCC5)noc4C)n3)c2)CC1` [IIIa-23]: the inhibition constant (Ki) on human Lck kinase is less than 100 nM.
